The target of assay [1] is T1, Heat shock factor protein 1 (Mus musculus, UniProt P38532).
T1 sequence (P38532 whole entry): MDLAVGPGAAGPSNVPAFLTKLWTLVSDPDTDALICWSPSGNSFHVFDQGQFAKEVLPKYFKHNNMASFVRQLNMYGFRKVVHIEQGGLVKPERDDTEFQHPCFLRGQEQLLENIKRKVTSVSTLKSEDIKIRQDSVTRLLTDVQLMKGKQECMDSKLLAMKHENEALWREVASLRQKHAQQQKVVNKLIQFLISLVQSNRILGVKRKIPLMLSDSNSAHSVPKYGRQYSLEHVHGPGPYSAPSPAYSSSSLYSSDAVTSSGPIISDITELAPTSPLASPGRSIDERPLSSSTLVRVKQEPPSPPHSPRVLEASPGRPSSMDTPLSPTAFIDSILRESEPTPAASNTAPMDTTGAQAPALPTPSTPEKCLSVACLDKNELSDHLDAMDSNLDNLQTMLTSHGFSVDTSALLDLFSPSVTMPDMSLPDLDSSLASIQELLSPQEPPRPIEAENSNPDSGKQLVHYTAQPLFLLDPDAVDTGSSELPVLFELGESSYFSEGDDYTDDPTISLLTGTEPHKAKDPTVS
In words: inhibition of MG132-induced HSE-luciferase signal, confirmation, cell-based, NIH3T3, luminescence, dose retest (AID 2382).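 Also: NIH3T3 fibroblasts with HSF1-driven luciferase reporter stressed by proteasome inhibitor MG132; luminescence from HSF1-driven luciferase expression after 8 hours of MG132 stress.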 The class given is functional.

A short description of assay [2]: inhibitors of firefly luciferase expression or activity, dose response, H4 neuroglioma cells, luminescence (AID 1990). The class given is functional, cell-based.
A short description of assay [3]: Luminescence Cell-Based Dose Response HTS to Identify Inhibitors of 5'UTR Stem-Loop Driven Prion Protein mRNA Translation in H4 Neuroglioblastoma Cells. [Related pubchem assays: 1827 (Project Summary), 1813 (Primary HTS)]. In kind it is functional.
Assay [4] in a line: inhibitors of SNCA 5'UTR-driven reporter translation, confirmation, H4 neuroglioma cells, luminescence (AID 1988). In kind it is functional, cell-based.
The target of assay [5] is T2, Corticotropin-releasing factor receptor 2/Corticotropin-releasing factor-binding protein (Homo sapiens, UniProt P24387+Q13324).
T2 sequence (Q13324 whole entry): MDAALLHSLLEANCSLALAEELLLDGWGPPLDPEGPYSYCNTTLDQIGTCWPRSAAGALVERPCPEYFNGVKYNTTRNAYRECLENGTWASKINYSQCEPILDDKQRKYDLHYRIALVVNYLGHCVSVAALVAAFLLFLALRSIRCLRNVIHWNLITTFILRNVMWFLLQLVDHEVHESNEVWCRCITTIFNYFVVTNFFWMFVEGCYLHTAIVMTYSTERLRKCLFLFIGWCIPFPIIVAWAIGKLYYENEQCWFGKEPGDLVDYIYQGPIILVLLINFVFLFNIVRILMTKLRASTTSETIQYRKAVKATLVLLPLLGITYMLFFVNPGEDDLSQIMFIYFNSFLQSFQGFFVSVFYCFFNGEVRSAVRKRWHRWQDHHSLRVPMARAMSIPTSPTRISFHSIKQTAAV
T2 sequence (P24387 whole entry): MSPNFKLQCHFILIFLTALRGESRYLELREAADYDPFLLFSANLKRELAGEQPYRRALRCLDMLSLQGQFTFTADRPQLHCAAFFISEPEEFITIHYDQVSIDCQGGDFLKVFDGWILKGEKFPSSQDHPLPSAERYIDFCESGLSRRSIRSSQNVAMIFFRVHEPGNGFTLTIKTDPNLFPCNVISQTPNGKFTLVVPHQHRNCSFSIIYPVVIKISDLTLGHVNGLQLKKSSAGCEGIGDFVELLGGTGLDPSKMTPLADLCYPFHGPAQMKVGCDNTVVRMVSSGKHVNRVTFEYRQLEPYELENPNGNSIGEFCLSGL
In words: activators of CRF receptor 2 with binding protein – uHTS hits, confirmation (AID 602473). The class given is functional. To be noted: read-out: EC50_Mean.

The target of assay [6] is T2, Corticotropin-releasing factor receptor 2/Corticotropin-releasing factor-binding protein. Briefly: Dose Response confirmation of uHTS hits for small molecule antagonists of the CRF-binding protein and CRF-R2 receptor complex. In kind it is functional. Conditions: read-out: IC50_Mean.
The subject of the next assay is H4. Briefly: Luminescence Cell-Based Dose Response HTS to Identify Activators of 5'UTR Stem-Loop Driven Prion Protein mRNA Translation in H4 Neuroglioblastoma Cells. [Related pubchem assays: 1829 (Project Summary), 1814 (Primary HTS)]. In kind it is functional. Conditions: Homo sapiens.
Assay [7] can be described thus: Luminescence Cell-Based Dose Confirmation HTS to Identify Activators of 5'UTR Stem-Loop Driven Alpha-Synuclein mRNA Translation in H4 Neuroglioblastoma Cells. [Related pubchem assays: 1829 (Project Summary), 1814 (Primary HTS)]. The class given is functional.
Assay [8] in a line: Luminescence Cell-Based Dose Response HTS to Identify Activators of Luciferase Translation or Activity in H4 […] Cells. [Related pubchem assays: 1829 (Project Summary), 1814 (Primary HTS)]. The class given is functional.

Activity calls are given as the source filed them. Rule as the data show it, for most assays here: actives have a measured EC50 and inactives only a lower limit.

Regarding `CC1CCN(c2nc3ccc(C(=O)N4CCN(Cc5ccc6c(c5)OCO6)CC4)cc3s2)CC1`, in [1], the EC50 was 16.5 µM (active).
For the compound `NS(=O)(=O)c1cccc(NC(=O)CNC(=O)CC23CC4CC(CC(C4)C2)C3)c1`, the EC50 in assay [1] is recorded as > 195 µM (not active).
As to `Cc1c(Cc2ccccc2)sc(N)c1C(N)=O`, the figures for the EC50 in assay [2], in [3] and in [4] were 22.7 µM (active), > 120 µM (not active) and > 120 µM (not active), respectively.
For the compound `COc1ccc(CN=C(S)Nc2ccc(-c3ccccc3)cc2)cc1`, the EC50 in assay [2], in [3] and in [4] was > 120 µM (not active) throughout.
For `Cc1cc(C)cc(N(CC(=O)Nc2ccc(Br)cc2)S(=O)(=O)c2c(C)nc(O)nc2O)c1`, the EC50 in [1] is > 195 µM (not active).
On the same count and under the same terms, the figure for `CCc1cc(C)cc(OCCNC(=O)c2cncc(Br)c2)c1` is > 195 µM (not active).
`CCN(c1ccc(NS(=O)(=O)c2cc(Cl)ccc2Cl)cc1)C(C)C`: in [5], the EC50 is > 53 µM (inactive). For the same compound, in assay [6], the IC50 is > 47.1 µM (inactive).
As for `C=C(C)CSc1nc2cc(Cl)c[nH]c-2n1`, the EC50 is 84.5 µM (active) in the assay on H4, 19 µM (active) in [7] and 50.8 µM (active) in [8].
For `Oc1ccc(Br)cn1`, the EC50 in assay [2], in assay [3] and in assay [4] was > 120 µM (not active) throughout.
Turning to `COc1ccc(CN2C(=O)[C@@H]3Cc4c([nH]c5ccccc45)C(C)(C)N3C2=O)cc1`, the EC50 in assay [2], in assay [3] and in assay [4] was > 120 µM (not active) in each case.
Turning to `CCCNC(=O)COc1ccc2c(=O)c(Oc3ccccc3F)coc2c1`, the EC50 in [1] was > 195 µM (not active).
The same measure, in the same setting: the figure for `Cc1cc(C)n(C(CC(=O)O)C(=O)O)n1` (configuration not stated) is > 195 µM (not active).
As to `CN(c1ccccc1C(=O)Nc1cccc([N+](=O)[O-])c1)S(C)(=O)=O`, the EC50 in [2] was > 120 µM (not active); in assay [3], 16.8 µM (active); in assay [4], > 120 µM (not active).
Consider `CCOc1cc2c(cc1OCC)C(c1ccc(OC)cc1)N(c1ccccc1)C(=O)C2` (configuration not stated), for which the EC50 in [1] is listed as > 195 µM (not active).
Turning to `COc1cccc(OCc2cc(C(=O)N(C)Cc3nccn3C)no2)c1`, the EC50 in the assay on H4 was > 120 µM (not active); in assay [7], 9.91 µM (active); in assay [8] it was 15.6 µM (active).
For the compound `CCC(=O)Nc1cc(Cl)ccc1N1CCN(C(=O)CC)CC1`, in assay [5], the EC50 is > 53 µM (inactive). For the same compound, the IC50 in [6] was > 47.1 µM (inactive).
Turning to `COc1ccc(N=C(S)Nc2ccc(F)cc2)c(OC)c1`, the EC50 in assay [1] is given as > 195 µM (not active).
Consider `CCOC(=O)c1c(C(F)(F)C(F)(F)C(F)(F)C(F)(F)F)n[nH]c1C`, for which the EC50 in assay [5] was > 53 µM (inactive). Moreover, the IC50 in assay [6] was > 47.1 µM (inactive).
Regarding `CC(C)c1ccc(NC(S)=NC2CCCCCC2)cc1`, the EC50 was 22 µM (active) with H4, 0.166 µM (active) in [7] and 14.3 µM (active) in assay [8].
Regarding `CCCOc1ccc(C(=O)NC(=S)Nc2nc3ccccc3s2)cc1`, the EC50 in the assay with H4 was 48.3 µM (active); in assay [7] it was 20.9 µM (active); in assay [8], 22.5 µM (active).
`CCOC(=O)c1cc(C#N)c(N2CCN(c3ccccn3)CC2)nc1-c1ccccc1`: in assay [5], the EC50 is > 53 µM (inactive). Moreover, the IC50 in [6] was > 47.1 µM (inactive).
For `COc1ccc(CCN2C(=O)CC(Cc3ccccc3)C2=O)cc1OC` (configuration not stated), in that order: > 53 µM (inactive) and > 47.1 µM (inactive).
Consider `c1ccc(C2CSc3ccccc3N2)cc1` (configuration not stated), for which the EC50 is 22.5 µM (active) with H4, 16.9 µM (active) in [7] and 27.5 µM (active) in assay [8].
As to `COc1ccc(C(=O)Cc2cnn(-c3ccccc3)c2)c(O)c1`, the EC50 was > 120 µM (not active) in the assay with H4, 0.135 µM (active) in [7] and 1.58 µM (active) in assay [8].
Take `COc1ccc(-c2nc3n(n2)C(c2ccccc2)C2=C(O)CCCC2=N3)cc1OC` (configuration not stated): the EC50 in assay [1] was > 195 µM (not active).
For the compound `CC(=O)Nc1ccc(S(=O)(=O)N2CCC(c3nnc(-c4ccc(C)cc4)o3)CC2)cc1`, in [5], the EC50 was > 53 µM (inactive). Moreover, the IC50 in assay [6] was > 47.1 µM (inactive).
Take `Cc1cccc2cc(CN(Cc3ccccc3)C(S)=NCCCN(C)C)c(O)nc12`: in assay [1], the EC50 was > 195 µM (not active).
Regarding `COc1ccc(NC(=O)c2sc3nc(N4CCCC4)c4c(c3c2N)CC(C)(C)OC4)c(OC)c1`, the EC50 in assay [2] was 35.2 µM (active); in [3], 31.3 µM (active); in assay [4], 14.7 µM (active).
Turning to `Cc1ccnc(N2CCCC(C(=O)NCc3cccs3)C2)n1` (configuration not stated), the EC50 in assay [1] was > 195 µM (not active).
As to `CC(=O)Nc1cc(C(=O)N2CCC3(CC2)OCCO3)ccc1S(=O)(=O)c1ccc(C)cc1`, the EC50 in assay [5] was > 53 µM (inactive). The IC50 in [6] is > 47.1 µM (inactive).
In the case of `Cc1ccc2c(c1)cc1c(O)nncn12`, the values for the EC50 (with H4; in assay [7]; in [8]) were 24.7 µM (active), 15.6 µM (active) and 9.57 µM (active), respectively.
As for `CCOc1ccc(NC(=O)C(C)NS(=O)(=O)c2ccc(NC(C)=O)cc2)cc1` (configuration not stated), the EC50 in assay [1] is > 195 µM (not active).
On to `CCOC(=O)c1cccnc1NC(=O)c1ccncc1`, for which the EC50 in [1] is given as > 195 µM (not active).
As to `Cc1c(C(=O)NCC2CCCO2)sc2nc(-c3ccc(F)cc3)cn12` (configuration not stated), the EC50 in [5] was > 53 µM (inactive). In addition, the IC50 in assay [6] was > 47.1 µM (inactive).
`O=C(NCc1cccs1)c1ccc(N2CCCCC2)nc1`: the EC50 was 31.5 µM (active) in the assay on H4, > 120 µM (not active) in [7] and 30.9 µM (active) in assay [8].
For the compound `Cc1cc(C)nc(SCCC(=O)Nc2ccccc2C)n1`, the EC50 in assay [5] was > 53 µM (inactive). Also, in [6], the IC50 was > 47.1 µM (inactive).
On to `Cc1ccccc1NC(=O)c1ccc2c(c1)OCCO2`, for which, in assay [1], the EC50 is listed as > 195 µM (not active).
On to `O=C(NC(C(=O)c1ccccc1)n1ccc(=O)[nH]c1=O)c1ccccc1` (configuration not stated), for which the results for the EC50 (with H4; in [7]; in [8]) were 16.4 µM (active), 7.39 µM (active) and 11.9 µM (active), respectively.
On to `Cc1ccnc(N2CCCC(C(=O)NC3CC3)C2)n1` (configuration not stated), for which the EC50 in assay [5] is > 53 µM (inactive). Further, in [6], the IC50 was > 47.1 µM (inactive).
Take `C/C(=N\NS(=O)(=O)c1ccccc1)c1ccc2c(c1)OCCO2`: the EC50 in assay [1] is given as > 195 µM (not active).
As to `O=S1(=O)CC/C(=N\Nc2ccc(F)cc2)c2ccsc21`, in assay [1], the EC50 is > 195 µM (not active).
Turning to `O=C(Cc1ccccc1)N/N=C/c1ccc2c(c1)OCO2`, the EC50 is > 120 µM (not active) in the assay on H4, 1.52 µM (active) in assay [7] and 103 µM (active) in assay [8].
The matching figures for `O=C(Nc1ccc(Br)cc1)C1Cc2ccccc2O/C1=N\O` (configuration not stated): 9.69 µM (active), 11.3 µM (active) and 7.85 µM (active).

These data come from ChEMBL document CHEMBL1201862, “PubChem BioAssay data set” (2004).
